Experimental data from ChEMBL document CHEMBL4145662, “Novel Nonsteroidal Progesterone Receptor (PR) Antagonists with a Phenanthridinone Skeleton” (ACS Med Chem Lett, 2018).

Each compound was assayed against T1, Progesterone receptor (Homo sapiens, UniProt P06401) (assay: Antagonist activity at PR in human T47D cells assessed as inhibition of progesterone-induced alkaline phosphatase activity measured after 24 hrs).
T1 sequence (P06401 whole entry): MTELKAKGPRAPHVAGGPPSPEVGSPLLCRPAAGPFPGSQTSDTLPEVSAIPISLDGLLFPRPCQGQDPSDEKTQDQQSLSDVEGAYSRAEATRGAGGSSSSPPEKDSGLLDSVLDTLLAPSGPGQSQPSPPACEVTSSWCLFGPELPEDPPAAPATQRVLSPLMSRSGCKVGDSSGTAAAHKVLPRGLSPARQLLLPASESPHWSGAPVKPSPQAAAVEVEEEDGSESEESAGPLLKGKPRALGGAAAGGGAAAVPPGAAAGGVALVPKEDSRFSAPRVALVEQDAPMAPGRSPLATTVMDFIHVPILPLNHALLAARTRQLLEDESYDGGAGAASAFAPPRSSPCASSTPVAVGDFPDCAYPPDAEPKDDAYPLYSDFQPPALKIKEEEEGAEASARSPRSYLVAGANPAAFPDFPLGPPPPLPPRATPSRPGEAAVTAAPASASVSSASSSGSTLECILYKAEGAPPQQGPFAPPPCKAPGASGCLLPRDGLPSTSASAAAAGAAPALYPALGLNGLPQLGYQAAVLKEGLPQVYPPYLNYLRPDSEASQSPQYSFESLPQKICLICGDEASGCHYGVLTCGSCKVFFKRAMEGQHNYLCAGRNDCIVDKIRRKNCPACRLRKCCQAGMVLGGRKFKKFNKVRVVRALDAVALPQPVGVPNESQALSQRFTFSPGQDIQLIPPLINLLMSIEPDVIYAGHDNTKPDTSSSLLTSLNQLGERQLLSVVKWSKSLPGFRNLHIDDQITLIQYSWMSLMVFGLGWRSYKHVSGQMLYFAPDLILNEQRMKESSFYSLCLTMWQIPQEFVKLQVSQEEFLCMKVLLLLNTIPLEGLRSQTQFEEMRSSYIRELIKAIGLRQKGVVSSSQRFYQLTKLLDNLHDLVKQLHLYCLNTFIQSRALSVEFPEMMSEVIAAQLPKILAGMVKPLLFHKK
Assay type: cell-based; call rule not given here

| Compound | IC50 |
| --- | --- |
| CCn1c(=O)c2ccccc2c2cc(C(O)(C(F)(F)F)C(F)(F)F)ccc21 | 1400 nM |
| CCCCn1c(=O)c2ccccc2c2cc(CC)ccc21 | 7800 nM |
| CCCCn1c(=O)c2ccccc2c2cc(CO)ccc21 | 8600 nM |
| CCCCn1c(=O)c2ccccc2c2cc(C(O)(C(F)(F)F)C(F)(F)F)c(OC)cc21 | 410 nM |
| CCCn1c(=O)c2ccccc2c2cc(C(O)(C(F)(F)F)C(F)(F)F)ccc21 | 3800 nM |
| CCCCn1c(=O)c2ccccc2c2ccccc21 | 7100 nM |
| CCCCn1c(=O)c2ccccc2c2cc(C(O)(C(F)(F)F)C(F)(F)F)cc(OC)c21 | 560 nM |
| CCCCn1c(=O)c2ccccc2c2cc(C(O)(C(F)(F)F)C(F)(F)F)ccc21 | 1200 nM |
| CCCCn1c(=O)c2c(OC)cccc2c2cc(C(O)(C(F)(F)F)C(F)(F)F)ccc21 | 12000 nM |
| CCCCn1c(=O)c2ccccc2c2cc(C(C)(C)C)ccc21 | 8300 nM |
| CCCCn1c(=O)c2cccc(OC)c2c2cc(C(O)(C(F)(F)F)C(F)(F)F)ccc21 | 2700 nM |
| CCCCn1c(=O)c2ccccc2c2c(OC)c(C(O)(C(F)(F)F)C(F)(F)F)ccc21 | 4000 nM |
| Cn1c(C#N)ccc1-c1ccc2oc(=O)ccc2c1 | 123 nM |
| O=S(=O)(Nc1ccc(Oc2ccccc2)cc1)c1cccc(C(F)(F)F)c1 | 107 nM |
| CCCCCCCCCn1c(=O)c2ccccc2c2cc(C(O)(C(F)(F)F)C(F)(F)F)ccc21 | 10000 nM |
| CCCCn1c(=O)c2ccc(OC)cc2c2cc(C(O)(C(F)(F)F)C(F)(F)F)ccc21 | 5800 nM |
| CCCCn1c(=O)c2cc(OC)ccc2c2cc(C(O)(C(F)(F)F)C(F)(F)F)ccc21 | 1100 nM |
| Cc1cc(C(O)(C(F)(F)F)C(F)(F)F)cc2c3ccccc3c(=O)n(C)c12 | 180 nM |
| CCCCCCn1c(=O)c2ccccc2c2cc(C(O)(C(F)(F)F)C(F)(F)F)ccc21 | 2500 nM |
| CCCCn1c(=O)c2ccccc2c2cc(C)ccc21 | 7900 nM |

Further lines, results first:

| IC50 | Compound |
| --- | --- |
| 780 nM | O=c1[nH]c2ccc(C(O)(C(F)(F)F)C(F)(F)F)cc2c2ccccc12 |
| 270 nM | COc1cc(C(O)(C(F)(F)F)C(F)(F)F)cc2c1[nH]c(=O)c1ccccc12 |
| 1000 nM | O=c1[nH]c2ccc(C(O)(C(F)(F)F)C(F)(F)F)cc2c2cc(F)ccc12 |
| 730 nM | O=c1[nH]c2ccc(C(O)(C(F)(F)F)C(F)(F)F)cc2c2cccc(F)c12 |
| 360 nM | CCCc1cc(C(O)(C(F)(F)F)C(F)(F)F)cc2c1[nH]c(=O)c1ccccc12 |
| 310 nM | O=c1[nH]c2ccc(C(O)(C(F)(F)F)C(F)(F)F)cc2c2ccc(F)cc12 |
| 210 nM | CCc1cc(C(O)(C(F)(F)F)C(F)(F)F)cc2c1[nH]c(=O)c1ccccc12 |
| 340 nM | Cn1c(=O)c2ccccc2c2cc(C(O)(C(F)(F)F)C(F)(F)F)ccc21 |
| 130 nM | O=c1[nH]c2c(F)cc(C(O)(C(F)(F)F)C(F)(F)F)cc2c2ccccc12 |

These compounds were tested against T1, Progesterone receptor (assay: Agonist activity at PR in human T47D cells at 10 uM).
Assay type: cell-based

| Compound | Activity |
| --- | --- |
| CC#C[C@]1(O)CC[C@H]2[C@@H]3CCC4=CC(=O)CCC4=C3[C@@H](c3ccc(N(C)C)cc3)C[C@@]21C [MIFEPRISTONE] | Not Active |
| Cn1c(C#N)ccc1-c1ccc2oc(=O)ccc2c1 | Not Active |
| O=S(=O)(Nc1ccc(Oc2ccccc2)cc1)c1cccc(C(F)(F)F)c1 | Not Active |
